Assay results published in US20070197430A1, “Conjugates And Therapeutic Uses Thereof” (priority 2004, published 2007).
“And” between values parts separate entries of the source, which are not always exact repeats. Identical values can stand only once. Peptide text beside a SMILES is read from it.

Experiments:
[1] = Circular dichroism, alpha-helical content of peptides; format: physicochemical; conditions: 30% aqueous trifluoroethanol
Method: Circular dichroism spectra were obtained using a Jasco Model J-710 spetropolarimeter at 20° C. using the following parameters: path length, 2 mm; step resolution, 0.1 nm; speed, 20 nm/min, accumulation, 4; response, 1 second; bandwidth, 1.0 nm. The peptides were analysed at a concentration of 0.5 mg/mL in 30% aqueous TFE. The alpha-helical content of the peptides were determined by methods described in Yang et al (1986), involving comparisons of spectra with model helical peptides.

Bcl-xL ΔC25 [2] = molecular target: T1, Bcl-xL ΔC25 (Homo sapiens, UniProt Q07817); assay: Alphascreen GST competition assay with biotinylated BimBH3 peptide; format: binding; conditions: Example 14, two values given per peptide
Method: (§1) Using solution competition assays and Alphascreen GST-detection as described below, the constrained peptide of Example 2 (peptide A) was assessed for competition binding to Bcl-2 homologues, Bcl-w ΔC29, Bcl-xL ΔC25 and Mcl-1 ΔC23.
(§2) All the assays were performed using 384-well white plates in a total volume of 20 μL. The assay buffer is 50 mM HEPES, 10 mM DTT, 100 mM NaCl, 0.05% Tween 20, 0.1 mg/mL casein, pH 7.4. The bead buffer is 50 mM Tris, 1% Tween 20, 0.1 mg/mL casein, pH 7.5.
(§3) For the GST-Bcl-wΔC29 protein assay, protein (0.10 nM), acceptor beads (10 μg/mL), 50% assay buffer and 50% bead buffer were incubated together for 30 minutes. At the same time, biotinylated BimBH3 peptide (Biotin-[…]-OH) (3 nM), donor beads (10 μg/mL), 50% assay buffer and 50% bead buffer were incubated to get for 30 minutes. For the competition binding assay, protein acceptor bead solution (10 μL) and the candidate compound, A, L1 or L2, were added into each well and incubated for 30 minutes, then biotinylated BimBH3 peptide donor bead solution (10 μL) was added into each well. The total DMSO concentration in each well was then adjusted to 0.5% to 2%. Plates were covered with aluminium foil and incubated at room temperature for 4 hours before reading in a Packard Fusion™ reader with excitation at 680 nm and emission at 520-620 nm. […]
Target sequence in this assay (Q07817 1-208 limits assumed): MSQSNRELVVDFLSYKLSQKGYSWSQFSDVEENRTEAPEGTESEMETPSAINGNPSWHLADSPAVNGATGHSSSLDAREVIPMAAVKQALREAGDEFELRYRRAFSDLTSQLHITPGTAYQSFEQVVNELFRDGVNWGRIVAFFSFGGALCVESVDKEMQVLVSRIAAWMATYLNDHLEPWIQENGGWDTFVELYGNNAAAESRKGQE

Mcl-1 ΔC23 [3] = assay: Alphascreen GST competition assay with biotinylated BakBH3 peptide; format: binding; conditions: Example 14, two values given per peptide
Method: as §1, §2, §3

Mcl-1 ΔC23 [4] = assay: Surface plasmon resonance direct binding (Biacore S51); conditions: SPR dissociation constant
Source text: (§4) In separate assay experiments, surface plasmon resonance (SPR) experiments using a Biacore S51 Biosensor were used as proof of direct binding of peptide A to Bcl-w ΔC29, Bcl-xL ΔC25 and Mcl-1 ΔC23. This technique also has the advantage of yielding dissociation constants, which are shown below.

Bcl-xL ΔC25 [5] = molecular target: T1, Bcl-xL ΔC25; assay: as above; conditions: SPR dissociation constant
Source text: as §4

Bcl-w ΔC29 = molecular target: T2, Bcl-w ΔC29 (Homo sapiens, UniProt Q92843); assay: Alphascreen GST competition assay with biotinylated Bim BH3-26 peptide; format: binding; conditions: Example 14, two values given per peptide
T2 sequence (Q92843 1-164 limits assumed): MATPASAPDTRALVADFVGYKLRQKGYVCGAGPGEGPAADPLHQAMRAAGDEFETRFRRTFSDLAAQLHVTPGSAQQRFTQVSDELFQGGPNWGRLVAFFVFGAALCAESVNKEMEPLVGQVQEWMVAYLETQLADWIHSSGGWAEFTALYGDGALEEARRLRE

Bcl-2 ΔC22 = Bcl-2 ΔC22 (Homo sapiens, UniProt P10415); assay: Competition assay with biotinylated Bim-BH3 peptide; format: binding; conditions: text says Bcl-2 and Bcl-xL
Source text: Alphascreen (Amplified Luminsecent Proximity Homogenous Assay) is a bead based technology which measures a biological interaction between molecules. The assay consists of two hydrogel coated beads which, when bought into close proximity by a binding interaction, allow a transfer of singlet oxygen from a donor bead to an acceptor bead.
Upon binding a photosensitiser in the donor bead converts ambient oxygen to a more excited singlet state. This singlet oxygen then diffuses across to react with a chemiluminescer in the acceptor bead. Fluorophores within the same bead are activated, resulting in the emission of light.

Chain of Bcl-2 ΔC22 (P10415 1-217 limits assumed): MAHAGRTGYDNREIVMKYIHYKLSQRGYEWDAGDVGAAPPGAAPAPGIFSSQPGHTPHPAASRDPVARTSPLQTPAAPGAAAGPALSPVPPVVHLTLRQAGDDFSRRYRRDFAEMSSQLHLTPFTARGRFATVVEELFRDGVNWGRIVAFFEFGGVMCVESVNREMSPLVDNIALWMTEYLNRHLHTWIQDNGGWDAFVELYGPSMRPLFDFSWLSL

SMILES	% Helicity [1]	IC50 (Bcl-xL ΔC25 [2])	IC50 (Mcl-1 ΔC23 [3])	Kd (Mcl-1 ΔC23 [4])	Kd (Bcl-xL ΔC25 [5])	IC50 (Bcl-w ΔC29)	affinity over the unconstrained 12-mer, in words (Bcl-2 ΔC22)
CC[C@H](C)[C@H](NC(C)=O)C(=O)N[C@@H](C)C(=O)N[C@@H](CCC(N)=O)C(=O)N[C@@H](CCC(=O)O)C(=O)N[C@@H](CC(C)C)C(=O)N[C@@H](CCCNC(=N)N)C(=O)N[C@@H](CCCNC(=N)N)C(=O)N[C@H](C(=O)NCC(=O)N[C@@H](CC(=O)O)C(=O)N[C@@H](CCC(=O)O)C(=O)N[C@@H](Cc1ccccc1)C(N)=O)[C@@H](C)CC [Peptide L1] (Ac-IAQELRRIGDEF-NH2)	9%	7000 nM and 6300 nM	400 nM and 360 nM	1200 nM	5200 nM	820 nM and 800 nM	
CC[C@H](C)[C@H](NC(C)=O)C(=O)N[C@@H](C)C(=O)N[C@@H](CCC(N)=O)C(=O)N[C@H]1CCC(=O)NCCCCCCNC(=O)CC[C@@H](C(=O)N[C@@H](Cc2ccccc2)C(N)=O)NC(=O)[C@H](CC(=O)O)NC(=O)CNC(=O)[C@H]([C@@H](C)CC)NC(=O)[C@H](CCCNC(=N)N)NC(=O)[C@H](CCCNC(=N)N)NC(=O)[C@H](CC(C)C)NC1=O [C, Ac-IAQ-E-LRRIGD-E-F-NH2] (HELM PEPTIDE1{[ac].I.A.Q.E.L.R.R.I.G.D.E.F.[am]}|CHEM1{[C(CCCN[*:2])CCN[*:1]]}$PEPTIDE1,CHEM1,5:R3-1:R1|PEPTIDE1,CHEM1,12:R3-1:R2$$$V2.0)	39%						outstanding increases in affinity
CC[C@H](C)[C@H](NC(C)=O)C(=O)N[C@@H](C)C(=O)N[C@@H](CCC(N)=O)C(=O)N[C@@H](CCC(N)=O)C(=O)N[C@@H](CC(C)C)C(=O)N[C@@H](CCCNC(=N)N)C(=O)N[C@@H](CCCNC(=N)N)C(=O)N[C@H](C(=O)NCC(=O)N[C@@H](CC(=O)O)C(=O)N[C@@H](CCC(N)=O)C(=O)N[C@@H](Cc1ccccc1)C(N)=O)[C@@H](C)CC [Peptide L2] (Ac-IAQQLRRIGDQF-NH2)		960 nM and 890 nM	650 nM and 660 nM	920 nM	370 nM	120 nM	
